Results on two compounds are retold here after patent US12391737B2, “Soluble NPY2 receptor agonists” (Boehringer Ingelheim International GmbH, priority 2020, dated 2025).

Structures are written as SMILES.

In data set [1] the target is T1, Human Neuropeptide Y2 Receptor (Homo sapiens, UniProt P49146).
T1 construct: purchased CHEMICON HTS066M
T1 sequence (P49146 1-381): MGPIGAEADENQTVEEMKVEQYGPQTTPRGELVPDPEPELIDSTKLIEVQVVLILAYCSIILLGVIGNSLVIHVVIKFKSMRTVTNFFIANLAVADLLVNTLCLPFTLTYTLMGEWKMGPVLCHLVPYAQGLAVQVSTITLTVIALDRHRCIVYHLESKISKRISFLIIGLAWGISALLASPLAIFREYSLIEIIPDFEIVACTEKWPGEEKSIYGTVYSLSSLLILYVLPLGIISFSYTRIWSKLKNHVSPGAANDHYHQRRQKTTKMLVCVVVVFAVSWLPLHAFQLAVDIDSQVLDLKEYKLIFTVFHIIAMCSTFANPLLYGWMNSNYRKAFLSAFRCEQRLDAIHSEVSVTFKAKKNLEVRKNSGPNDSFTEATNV
Kind of data set: Radioligand binding competition assay (RLB). Particulars: Table 3, 125I-PYY(1-36) competition; read-out: Ki. An outline of the steps:
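Peptides were serially diluted from 1 mM DMSO stocks and competed for radioligand binding to receptor membranes (0.5 μg/well) over 2 h at room temperature, pH 7.4 HEPES buffer. Bound radioactivity on filters was counted by scintillation, and IC50 was derived by nonlinear regression.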

A further data set can be described thus: Solubility determination. The conditions noted are these: for Sol6: pH 6; for Sol7: pH 7. An outline of the steps: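 First, TFA-salt peptide was added to 0.1 M sodium diphosphate (pH 6.4 or 7.0) to 10 mg/ml and shaken 2 h at room temperature. Next, insoluble material was filtered off. Finally, filtrate and control, each 1 mg/ml in 50% acetonitrile, were compared by reversed-phase chromatography.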

As to `CC(C)CC(=O)N[C@@H](C)C(=O)N1CCC[C@H]1C(=O)N[C@@H](CCC(=O)O)C(=O)N[C@@H](CCCCNC(=O)CCCCCNC(=O)CC[C@H](NC(=O)CCCCCCCCCCCCCCCCC(=O)O)C(=O)O)C(=O)N1CCC[C@H]1C(=O)N[C@@H](CCC(=O)O)C(=O)N[C@@H](CCC(=O)O)C(=O)N[C@@H](CO)C(=O)N[C@@H](C)C(=O)N[C@H](C(=O)N1CCC[C@H]1C(=O)N[C@@H](CCC(=O)O)C(=O)N[C@@H](CCC(=O)O)C(=O)N[C@@H](CC(C)C)C(=O)N[C@@H](CCC(N)=O)C(=O)N[C@@H](CCCNC(=N)N)C(=O)N[C@@H](Cc1ccc(O)cc1)C(=O)N[C@@H](Cc1ccc(O)cc1)C(=O)N[C@H](C(=O)N[C@@H](CO)C(=O)N[C@@H](CC(C)C)C(=O)N[C@@H](CCCNC(=N)N)C(=O)N[C@@H](Cc1c[nH]cn1)C(=O)N[C@@H](Cc1ccc(O)cc1)C(=O)N[C@@H](Cc1ccc(O)cc1)C(=O)N[C@@H](CC(N)=O)C(=O)N[C@@H](Cc1c[nH]c2ccccc12)C(=O)N[C@@H](CC(C)C)C(=O)N[C@H](C(=O)N[C@@H](CCCNC(=N)N)C(=O)N[C@@H](CCC(N)=O)C(=O)N[C@@H](CCCNC(=N)N)C(=O)N[C@@H](Cc1ccc(O)cc1)C(N)=O)[C@@H](C)O)C(C)C)[C@@H](C)O` [Compound 96, N{alpha-4}-(3-methylbutanoyl)-N{epsilon-7}-(6-[(4S)-4-carboxy-4-(17-carboxyheptadecanamido)butanamido]hexanoyl)-[4A,7K,9E,11S,13T,18Q,22V,28Y,30W,31L]-hPYY(4-36)], the Ki in data set [1] was found to be 3.06 nM. Further, in “Solubility determination”, the “Sol6” value turned out to be 8.8 mg/mL and the “Sol7” value is 8.7 mg/mL.
As for `CC(C)CC(=O)N[C@@H](C)C(=O)N1CCC[C@H]1C(=O)N[C@@H](CCC(=O)O)C(=O)N[C@@H](CCCCNC(=O)CCCCCNC(=O)CC[C@H](NC(=O)CCCCCCCCCCCCCCCCC(=O)O)C(=O)O)C(=O)N1CCC[C@H]1C(=O)N[C@@H](CCC(=O)O)C(=O)N[C@@H](CCC(=O)O)C(=O)N[C@@H](CC(=O)O)C(=O)N[C@@H](CCC(=O)O)C(=O)N[C@H](C(=O)N1CCC[C@H]1C(=O)N[C@@H](CCC(=O)O)C(=O)N[C@@H](CCC(=O)O)C(=O)N[C@@H](CC(C)C)C(=O)N[C@@H](CCC(N)=O)C(=O)N[C@@H](CCCNC(=N)N)C(=O)N[C@@H](Cc1ccc(O)cc1)C(=O)N[C@@H](Cc1ccc(O)cc1)C(=O)N[C@H](C(=O)N[C@@H](CO)C(=O)N[C@@H](CC(C)C)C(=O)N[C@@H](CCCNC(=N)N)C(=O)N[C@@H](Cc1c[nH]cn1)C(=O)N[C@@H](Cc1ccc(O)cc1)C(=O)N[C@@H](Cc1ccc(O)cc1)C(=O)N[C@@H](CC(N)=O)C(=O)N[C@@H](Cc1c[nH]c2ccccc12)C(=O)N[C@@H](CC(C)C)C(=O)N[C@H](C(=O)N[C@@H](CCCNC(=N)N)C(=O)N[C@@H](CCC(N)=O)C(=O)N[C@@H](CCCNC(=N)N)C(=O)N[C@@H](Cc1ccc(O)cc1)C(N)=O)[C@@H](C)O)C(C)C)[C@@H](C)O` [Compound 8, N{alpha-4}-(3-methylbutanoyl)-N{epsilon-7}-(6-[(4S)-4-carboxy-4-(17-carboxyheptadecanamido)butanamido]hexanoyl)[4A,7K,9E,12E,13T,18Q,22V,28Y,30W,31L]-hPYY(4-36)], the inhibitory constant (Ki) in data set [1] came out at 106 nM. Also, in the data set “Solubility determination”, the “Sol6” value stood at 9.7 mg/mL and the “Sol7” value was determined as 9.6 mg/mL.
